The source of these data is ChEMBL document CHEMBL4251610, “Branching tryptamines as a tool to tune their antiproliferative activity” (Eur J Med Chem, 2018).

Assay type in all cases: functional, cell-based
The test system of one assay is HEK293. The assay is described as follows: Antiproliferative activity against HEK293 cells after 24 hrs by MTT assay. The following applies: Homo sapiens, HEK293, 24 h.
The next assay has as its system Jurkat. The assay is described as follows: Antiproliferative activity against human Jurkat cells after 24 hrs by MTT assay.
The next assay concerns HepG2. Put plainly: Antiproliferative activity against human HepG2 cells after 24 hrs by MTT assay. The following applies: HepG2, 24 h.
Another assay relates to SH-SY5Y. The assay is described as follows: Antiproliferative activity against human SH-SY5Y cells after 24 hrs by MTT assay.

Bounds are passed on as bounds.

In the case of `Cc1[nH]c2ccc(Br)cc2c1CC(N)c1ccc(F)cc1` (configuration not stated), the IC50 in the assay with HEK293 was 23.2 µM; in the assay on Jurkat it was 11.8 µM; with HepG2, 9.58 µM; in the assay on SH-SY5Y, 22.9 µM.

Turning to `Cc1ccc(C(N)Cc2c(C)[nH]c3ccc(Br)cc23)cc1` (configuration not stated), the IC50 in the assay on HEK293 was 23.2 µM; in the assay on Jurkat, 9.86 µM; in the assay on HepG2, 7.76 µM; with SH-SY5Y, 21.9 µM.

As to `Cc1[nH]c2ccc(-c3ccccc3)cc2c1CCNCc1ccccc1`, the IC50 turned out to be 16.6 µM in the assay with HEK293, 1.45 µM in the assay with Jurkat, 1.49 µM with HepG2 and 5.71 µM in the assay on SH-SY5Y.

As to `Cc1[nH]c2ccc(-c3ccccc3)cc2c1CC(N)c1ccccc1` (configuration not stated), the IC50 was 10.1 µM with HEK293, 1.58 µM with Jurkat, 1.82 µM in the assay on HepG2 and 12.5 µM with SH-SY5Y.

Regarding `Cc1[nH]c2ccc(F)cc2c1CC(N)c1ccccc1` (configuration not stated), the concentration for half-maximal inhibition (IC50) in the assay on HEK293 is 73.5 µM; in the assay with Jurkat it was 15.2 µM; with HepG2, 15.8 µM; in the assay with SH-SY5Y it was 59.1 µM.

Regarding `Cc1c(CC(N)c2ccccc2)c2cc(F)ccc2n1Cc1ccccc1` (configuration not stated), the IC50 with HEK293 came to 16.7 µM; in the assay with Jurkat, 14 µM; in the assay with HepG2, 13.1 µM; in the assay with SH-SY5Y, 15 µM.

On to `Cc1[nH]c2ccc(F)cc2c1CC(NCc1ccccc1)c1ccccc1` (configuration not stated), for which the IC50 in the assay with HEK293 is 65.2 µM; in the assay on Jurkat, 13.8 µM; with HepG2 it was 19.4 µM; with SH-SY5Y, 20.2 µM.

Turning to `Cc1[nH]c2ccc(Br)cc2c1CC(N)c1ccc(Cl)cc1` (configuration not stated), the IC50 in the assay on HEK293 is 18.4 µM; with Jurkat, 7.5 µM; with HepG2, 8.43 µM; with SH-SY5Y it was 18.6 µM.

As to `COc1cc(CNCCc2c(C)[nH]c3ccc(F)cc23)cc2c1OCO2`, the half-maximal inhibitory concentration (IC50) in the assay on HEK293 stood at 17.7 µM; in the assay on Jurkat it was 13.9 µM; in the assay with HepG2, 16.4 µM; with SH-SY5Y it was 12.5 µM.

Consider `Cc1c(CC(N)c2ccccc2)c2cc(-c3ccccc3)ccc2n1Cc1ccccc1` (configuration not stated), for which the half-maximal inhibitory concentration (IC50) came out at 16.3 µM with HEK293, 1.9 µM in the assay with Jurkat, 1.46 µM in the assay with HepG2 and 11.9 µM in the assay on SH-SY5Y.

As for `Cc1[nH]c2ccccc2c1CC(N)c1ccccc1` (configuration not stated), the IC50 is 109 µM in the assay with HEK293, 15.5 µM in the assay on Jurkat, 16.7 µM in the assay with HepG2 and 117 µM with SH-SY5Y.

In the case of `COc1ccc(C(N)Cc2c(C)[nH]c3ccc(Br)cc23)cc1` (configuration not stated), the IC50 was determined as 18.7 µM in the assay with HEK293, 8.14 µM with Jurkat, 7.12 µM in the assay with HepG2 and 17.8 µM in the assay with SH-SY5Y.

`Cc1[nH]c2ccc(Br)cc2c1C[C@H](N)c1ccccc1`: the IC50 was 34.8 µM in the assay on HEK293, 13.8 µM in the assay on Jurkat, 10.8 µM in the assay on HepG2 and 25.2 µM with SH-SY5Y.

With `Cc1c(CCN)c2cc(-c3ccccc3)ccc2n1Cc1ccccc1`, the IC50 was 15.4 µM in the assay with HEK293, 3.82 µM with Jurkat, 1.9 µM in the assay on HepG2 and 12.2 µM in the assay on SH-SY5Y.

Regarding `Cc1ccc2[nH]c(C)c(CC(N)c3ccccc3)c2c1` (configuration not stated), the IC50 amounted to 94 µM in the assay on HEK293, 13.2 µM in the assay on Jurkat, 17.1 µM in the assay on HepG2 and 46.1 µM with SH-SY5Y.

Take `Cc1[nH]c2ccc(-c3ccccc3)cc2c1CC(NCc1ccccc1)c1ccccc1` (configuration not stated): the IC50 with HEK293 was 20.1 µM; with Jurkat, 8.88 µM; in the assay on HepG2, 45.5 µM; in the assay on SH-SY5Y, 20.1 µM.

With `Cc1[nH]c2ccc(F)cc2c1CCNCc1ccccc1`, the IC50 in the assay with HEK293 came out at 21.4 µM; in the assay with Jurkat it was 12.9 µM; in the assay on HepG2, 14.7 µM; with SH-SY5Y, 25 µM.

`Cc1[nH]c2ccc(F)cc2c1CCN`: the IC50 in the assay on HEK293, in the assay on Jurkat, in the assay on HepG2 and in the assay on SH-SY5Y was greater than 100 µM each time.

Take `COc1cc(CNCCc2c(C)[nH]c3ccc(-c4ccccc4)cc23)cc2c1OCO2`: the IC50 in the assay with HEK293 is 8.27 µM; in the assay on Jurkat, 1.51 µM; with HepG2, 1.37 µM; in the assay on SH-SY5Y, 9.07 µM.

Take `Cc1[nH]c2ccc(Br)cc2c1CC(N)c1ccccc1` (configuration not stated): the IC50 in the assay on HEK293 was found to be 39.4 µM; in the assay with Jurkat it was 20.4 µM; in the assay with HepG2 it was 14 µM; in the assay with SH-SY5Y it was 42.7 µM.

Consider `Cc1[nH]c2ccc(Br)cc2c1CC(N)c1cc(Cl)cc(Cl)c1` (configuration not stated), for which the IC50 with HEK293 came to 30.9 µM; in the assay on Jurkat it was 9.55 µM; with HepG2 it was 14.8 µM; with SH-SY5Y it was 27.6 µM.

With `COc1cc(CNC(Cc2c(C)[nH]c3ccc(F)cc23)c2ccccc2)cc2c1OCO2` (configuration not stated), the IC50 with HEK293 was 54.9 µM; in the assay on Jurkat it was 14.5 µM; in the assay with HepG2, 15.6 µM; with SH-SY5Y, 20 µM.

For `Cc1c(CCN)c2cc(F)ccc2n1Cc1ccccc1`, the IC50 in the assay with HEK293 was found to be 17.2 µM; in the assay with Jurkat it was 13.5 µM; with HepG2 it was 19.7 µM; with SH-SY5Y, 13.1 µM.
